Results reported in patent US20170038387A1, “METHODS FOR TREATING CHRONIC LYMPHOCYTIC LEUKEMIA AND THE USE OF BIOMARKERS AS A PREDICTOR OF CLINICAL SENSITIVITY TO IMMUNOMODULATORY THERAPIES” (Celgene Corporation, priority 2015, published 2017).

System: primary CLL samples
Test: TMT-tagging and mass-spectrometry profiling of relative protein abundance after compound exposure
Format: cell-based, human
Source text: Data import: Relative abundance (RA) data was imported into the R statistical programming environment v.3.1.2. Proteins with less than one spectral count in any of the three MS runs for each case scenario were filtered out and relative abundance was scale normalized to the same median by using normalizeBetweenArrays( ) function implemented in the limma package for Bioconductor (see Yang et al., Nucleic Acids Research, 30(4), e15 (2002)).
Comparative analysis: RA scores were log 2-transformed to perform direct comparison of compounds exposure versus DMSO control and a paired moderated t-test (see Smyth, Statistical Applications in Genetics and Molecular Biology, 3(1), article 3 (2004)) was performed by using lmfit( ) and eBayes( ) functions form limma package to test differential relative abundance between experimental conditions. For differential analysis across cases, the log-2 fold changes of replicates for two of the case scenarios were considered.
Linear regression analysis: Linear regression was modeled by using lm( ) function from the stats package. This function provided the correlation coefficients as well as the linear fitted model. Data were assessed for outliers detection within the linear model via the Studentized residuals method (implemented in outlierTest( ) function from car package) and deemed significant if their q-values were under a threshold of 0.05 (5%).
The proteins subjected to the analysis were those with more than one spectral count matched in three MS runs representing each case scenario. A total of 6114, 6070, 5982 and 5382 proteins were retained for each case scenario. Differential expression analysis was applied to the high and consistent coverage of 4594 proteins quantified across all case scenarios. FIGS. 2A-2D show distribution of normalized relative abundances for each replicate of the four case scenarios (Cases B1-B4). The standard deviation of each replicate is represented as a stair-plot line at the bottom of the boxplot. FIGS. 3A-3D show heatmaps representing correlations of log 2 fold-changes of protein levels post compound treatment as compared with DMSO across conditions for all case scenarios. Low correlation of log 2 fold-changes at 6 hours may be due to the alteration of a small subset of proteins at an early time point without strong general effects across the proteome. Stronger correlations at 24 hours can be linked to a higher proportion of proteins perturbed reflecting downstream changes upon compound exposure.

[1] = Cmp A vs. len, Case B1, 10 μM, 24 hours

In the case of `Cc1nc2cccc(N)c2c(=O)n1C1CCC(=O)NC1=O` (stereo not drawn) [Compound A, 3-(5-amino-2-methyl-4-oxo-4H-quinazolin-3-yl)-piperidine-2,6-dione], the “protein abundance levels of SELL, SNX20 and KLF13 upon exposure” value (10 μM, 24 hours) is reported as “down-regulated”, the “level of WIZ (widely-interspaced zinc-finger) upon exposure” value (Case B1) is reported as “decreased” and the “RA upon Cmp A vs. len Treatment, IKZF1 (Q13422)” value (Case B1, 10 μM, 24 hours) is reported as “Lower”. For the same molecule, the “RA upon Cmp A vs. len treatment, BCL2L1 (Q07817)” value (Case B1, 10 μM, 24 hours) was “Higher”, the “RA upon Cmp A vs. len treatment, GZMB (P10144)” value (Case B1, 10 μM, 24 hours) was “Lower” and the “RA upon Cmp A vs. len treatment, IGHM (P01871-2)” value (Case B1, 10 μM, 24 hours) was “Lower”. The “RA upon Cmp A vs. len treatment, IKZF1 (Q13422-2)” value (Case B1, 10 μM, 24 hours) was “Lower”, the “RA upon Cmp A vs. len treatment, IRF8 (Q02556)” value (Case B1, 10 μM, 24 hours) was “Lower” and the “RA upon Cmp A vs. len treatment, KLF13 (Q9Y2Y9)” value (Case B1, 10 μM, 24 hours) was “Lower”. The “RA upon Cmp A vs. len treatment, LGALS9 (O00182)” value (Case B1, 10 μM, 24 hours) was “Lower”, the “RA upon Cmp A vs. len treatment, MARCKS (P29966)” value (Case B1, 10 μM, 24 hours) was “Higher” and the “RA upon Cmp A vs. len treatment, NDE1 (Q9NXR1)” value (Case B1, 10 μM, 24 hours) was “Higher”. The “RA upon Cmp A vs. len treatment, NFKBIE (O00221)” value (Case B1, 10 μM, 24 hours) was “Lower”, the “RA upon Cmp A vs. len treatment, PTK2B (Q14289-2)” value (Case B1, 10 μM, 24 hours) was “Higher” and the “RA upon Cmp A vs. len treatment, SAMSN1 (Q9NSI8)” value (Case B1, 10 μM, 24 hours) was “Higher”. For the same molecule, the “RA upon Cmp A vs. len treatment, SELL (P14151-2)” value (Case B1, 10 μM, 24 hours) was “Lower”, the “RA upon Cmp A vs. len treatment, SLAMF1 (Q13291)” value (Case B1, 10 μM, 24 hours) was “Higher” and the “RA upon Cmp A vs. len treatment, SNX20 (Q7Z614)” value (Case B1, 10 μM, 24 hours) was “Lower”. For the same molecule, the “RA upon Cmp A vs. len treatment, SOD2 (P04179)” value (Case B1, 10 μM, 24 hours) was “Higher”, the “RA upon Cmp A vs. len treatment, TCF7 (P36402-3)” value (Case B1, 10 μM, 24 hours) was “Lower” and the “RA upon Cmp A vs. len treatment, TRAF1 (Q13077)” value (Case B1, 10 μM, 24 hours) was “Higher”. The “RA upon Cmp A vs. len treatment, WIZ (M0QXA7)” value (Case B1, 10 μM, 24 hours) was “Lower”, the “RA upon Cmp A vs. len treatment, ZBTB10 (Q96DT7)” value (Case B1, 10 μM, 24 hours) was “Higher” and the “RA upon Cmp A vs. len Treatment, IKZF1 (Q13422)” value (Case B2, 10 μM, 24 hours) was “Lower”. The “RA upon Cmp A vs. len Treatment, IKZF3 (Q9UKT9)” value (Case B2, 10 μM, 24 hours) was “Lower”, the “abundance levels of GBP2 and GBP4 upon exposure” value (Case B3) was “increased abundance levels” and the “RA upon Cmp A vs. len Treatment, CD40 (P25942)” value (Case B3, 10 μM, 24 hours) was “Higher”. For the same molecule, the “RA upon Cmp A vs. len Treatment, CR2 (P20023-3)” value (Case B3, 10 μM, 24 hours) was “Higher”, the “RA upon Cmp A vs. len Treatment, CTSS (P25774)” value (Case B3, 10 μM, 24 hours) was “Higher” and the “RA upon Cmp A vs. len Treatment, GBP1 (P32455)” value (Case B3, 10 μM, 24 hours) was “Higher”. For the same molecule, the “RA upon Cmp A vs. len Treatment, IKZF1 (Q13422)” value (Case B3, 10 μM, 24 hours) was “Lower”, the “RA upon Cmp A vs. len Treatment, IKZF3 (Q9UKT9)” value (Case B3, 10 μM, 24 hours) was “Lower” and the “RA upon Cmp A vs. len Treatment, ISG20 (Q96AZ6)” value (Case B3, 10 μM, 24 hours) was “Higher”. For the same molecule, the “RA upon Cmp A vs. len Treatment, SASH1 (O94885)” value (Case B3, 10 μM, 24 hours) was “Higher”, the “RA upon Cmp A vs. len Treatment, SEMA7A (O75326)” value (Case B3, 10 μM, 24 hours) was “Higher” and the “RA upon Cmp A vs. len treatment, PTK2B (Q14289-2)” value (Case B3, 10 μM, 24 hours) was “Higher”. The “RA upon Cmp A vs. len treatment, SAMSN1 (Q9NSI8)” value (Case B3, 10 μM, 24 hours) was “Higher”, the “RA upon Cmp A vs. len treatment, SELL (P14151-2)” value (Case B3, 10 μM, 24 hours) was “Lower” and the “RA upon Cmp A vs. len treatment, SLAMF1 (Q13291)” value (Case B3, 10 μM, 24 hours) was “Higher”. For the same molecule, the “RA upon Cmp A vs. len treatment, SOD2 (P04179)” value (Case B3, 10 μM, 24 hours) was “Higher”, the “RA upon Cmp A vs. len treatment, TRAF1 (Q13077)” value (Case B3, 10 μM, 24 hours) was “Higher” and the IRF5 protein level (Case B4 (not quantified in B2)) was “exclusively decreased”. The “RA upon Cmp A vs. len Treatment, PDE6D (O43924)” value (Case B4, 10 μM, 24 hours) was “Lower”, the “logFC BCL2L1 (Q07817)” value [1] was 0.5326 and the “logFC GZMB (P10144)” value [1] was −1.175. The “logFC IGHM (P01871-2)” value [1] was −0.6625, the “logFC IKZF1 (Q13422)” value [1] was −1.709 and the “logFC IKZF1 (Q13422-2)” value [1] was −2.169.
